Source: PubChem BioAssay (NCI)
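Cells were grown in 96-well plates and exposed to each compound for 48 hours at five concentrations; endpoints were interpolated linearly between bracketing concentrations, or set to the highest concentration if not reached. TGI marks complete inhibition of growth.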

Key:
Experiment in all cases: NCI tumour cell line growth inhibition, 48 h
[1] = tested on: SK-MEL-28 melanoma
[2] = tested on: OVCAR-4 ovarian
[3] = tested on: OVCAR-5 ovarian
[4] = tested on: SR leukemia
[5] = tested on: ACHN renal
[6] = tested on: SK-MEL-2 melanoma
[7] = tested on: HCT-15 colon
[8] = tested on: SF-539 CNS
[9] = tested on: UACC-62 melanoma
[10] = tested on: A498 renal
[11] = tested on: IGROV1 ovarian
[12] = tested on: NCI-H226 lung
[13] = tested on: HS 578T breast
[14] = tested on: NCI-H460 lung
[15] = tested on: COLO 205 colon
[16] = tested on: HOP-62 NSCLC
[17] = tested on: NCI/ADR-RES ovarian
[18] = tested on: SNB-75 CNS
[19] = tested on: RPMI-8226 leukemia
[20] = tested on: T-47D breast

SMILES | TGI [1] [µM] | TGI [2] [µM] | TGI [3] [µM] | TGI [4] [µM] | TGI [5] [µM] | TGI [6] [µM] | TGI [7] [µM] | TGI [8] [µM] | TGI [9] [µM] | TGI [10] [µM] | TGI [11] [µM] | TGI [12] [µM] | TGI [13] [µM] | TGI [14] [µM] | TGI [15] [µM] | TGI [16] [µM] | TGI [17] [µM] | TGI [18] [µM] | TGI [19] [µM] | TGI [20] [µM]
Cn1c(=O)n2n(c1=O)[C@@H](c1ccccc1)[C@H]2c1ccccc1 | > 100 | > 100 | > 100 | > 100 | > 100 | > 100 | > 100 | > 100 | > 100 | > 100 | > 100 | > 100 | > 100 | > 100 | > 100 | > 100 | > 100 | > 100 |  | 
COC(=O)C(=O)C(C(=O)OC)C(=O)C(=O)Nc1cc(Cl)c(Cl)cc1Cl (stereo unspecified) | > 100 | > 100 | > 100 | 56.7 | > 100 | > 100 | > 100 | > 100 | > 100 | > 100 | > 100 | > 100 |  | > 100 | > 100 | > 100 |  | > 100 | 60.3 | 
Cn1nc2ccccc2cc1=O | > 100 | > 100 | > 100 |  | > 100 | > 100 | > 100 | > 100 | > 100 | > 100 | > 100 | > 100 |  | > 100 | > 100 | > 100 |  | > 100 | > 100 | 
CC(C)C1COC(c2ccc3ccccc3c2-c2c(O[Si](C)(C)C(C)(C)C)ccc3ccccc23)=N1 (stereo unspecified) | 33.8 | 36.1 | 32.6 |  | 33.2 | 30.4 | 46.7 | 32.4 | 30.9 | 36.2 | 35.4 | 26.4 |  | 37.4 | 33.6 | 33.4 |  | 32.5 | 33.2 | 
CCOC(=O)Nn1c(C)cc(C(=O)OC)c1C | > 100 |  | > 100 |  | > 100 | > 100 | > 100 | > 100 | > 100 | > 100 | > 100 | > 100 |  | > 100 | > 100 | > 100 |  | > 100 | > 100 | 
Cc1ccc(S(=O)(=O)Nn2c(O)c(C#N)c(-c3ccc(N(C)C)cc3)c(C#N)c2=O)cc1 | > 50 | > 50 | > 50 |  | > 50 | > 50 | > 50 | > 50 | > 50 | > 50 | > 50 | > 50 | > 50 | > 50 | > 50 | > 50 | > 50 | > 50 | 43.4 | 
COc1ccc2c(c1)OC(c1ccccc1O)CC2=O (stereo unspecified) | > 100 | > 100 | > 100 |  | > 100 | 77.5 | > 100 | > 100 |  | > 100 |  |  |  | > 100 |  | > 100 |  | > 100 | > 100 | 
C#Cc1cc(CN(CC(=O)OC(C)(C)C)CC(=O)OC(C)(C)C)nc(CN(CC(=O)OC(C)(C)C)CC(=O)OC(C)(C)C)c1 | 93.8 | 37.9 | > 100 |  | 77 | 8.24 | > 100 | 32.9 | 36.5 | 76.1 | 26.7 | 7.34 |  | > 100 | 24.9 | 24.1 |  | 43.4 | 6.25 | 
CC1=C2CN(C(=O)OCC(C)C)CCC2C2=C(C(=O)c3ccccc3C2=O)C1C (stereo unspecified) | > 10 | > 10 |  | > 10 |  |  | > 10 |  | > 10 |  | > 10 |  |  |  | > 10 | > 10 |  | > 10 | > 10 | > 10
O=C1NC2C(CCO)CC=C[C@H]2c2cc3c(cc21)OCO3 (stereo partly specified) | > 100 |  |  | > 100 | > 100 |  | > 100 | > 100 | > 100 |  | > 100 | > 100 |  | > 100 | > 100 | > 100 |  | > 100 | > 100 | 
O=C(N/N=C(\c1nc2ccc(Cl)cc2[nH]c1=O)C(O)c1ccccc1Cl)c1ccncc1 (stereo unspecified) | > 100 | > 100 | > 100 |  | > 100 | > 100 | > 100 | > 100 | > 100 | > 100 | > 100 | > 100 |  | > 100 | > 100 |  |  | > 100 |  | 
CN1N=C2c3ccccc3CC[C@H]2C1c1cccc(O)c1 (stereo partly specified) | > 100 | > 100 | > 100 | > 100 | > 100 | > 100 | > 100 | > 100 | > 100 | > 100 | > 100 | > 100 |  | > 100 | > 100 | > 100 |  |  | > 100 | 
NC(=O)OCc1c(-c2ccccc2)nn(-c2ccccc2)c1COC(N)=O | > 100 | > 100 | > 100 |  |  | > 100 | > 100 | > 100 | > 100 |  |  | > 100 |  |  | > 100 |  | > 100 | > 100 | > 100 | > 100
Cn1c(=O)cc(N2CCCC2)[nH]c1=O | > 100 | > 100 | > 100 | > 100 | > 100 | > 100 | > 100 | > 100 |  |  | > 100 | > 100 |  | > 100 | > 100 | > 100 | > 100 | > 100 | > 100 | 
